Laboratory results as given in patent publication US8986994B2, “Substituted pyridines and pyrimidines” (Technische Universitaet Wien, priority 2009, dated 2015).
Read-outs that look alike come from different tables or passages of the source.

Assays:
ANF (C2C12 cells) = test: ANF promoter luciferase reporter assay in C2C12 cells; type: cell-based, mouse; conditions: for luciferase signal in all three reporter assays: ANF, TOPflash and Nkx2.5 reporter assays together; for fold induction at 1 µM: Mus musculus, read-out: ANF activity
TOPflash (C2C12 cells) = test: TOPflash luciferase reporter assay in C2C12 cells; type: cell-based; conditions: Mus musculus, read-out: TOPflash activity
Nkx2.5 (C2C12 cells) = test: Nkx2.5 luciferase reporter assay in C2C12 cells; type: cell-based; conditions: Mus musculus, read-out: Nkx2.5 activity
ANF (P19 cells) = test: ANF promoter luciferase reporter assay in P19 cells; type: cell-based, mouse; conditions: for fold induction at 1 µM: Mus musculus, read-out: ANF activity
TOPflash (P19 cells) = test: TOPflash luciferase reporter assay in P19 cells; type: cell-based; conditions: Mus musculus, read-out: TOPflash activity
Nkx2.5 (P19 cells) = test: Nkx2.5 luciferase reporter assay in P19 cells; type: cell-based; conditions: Mus musculus, read-out: Nkx2.5 activity
[1] = 192 h, C2C12 cells, 1 μM for 8 days, luciferase signal vs control (untreated cells)
[2] = 192 h, P19 cells, 1 μM for 8 days, luciferase signal vs control (untreated cells)

Question: Which “luciferase signal in all three reporter assays” value (ANF (C2C12 cells); C2C12 cells, 1 μM for 8 days) does the source give for COc1ccc(Nc2cc(NC3CCCCC3)ncn2)cc1 [example 3, N^4-Cyclohexyl-N^6-(4-methoxyphenyl)pyrimidine-4,6-diamine] here?
Answer: increase in the luciferase signal in all three reporter assays

Question: And the fold induction at 1 µM (ANF (C2C12 cells); C2C12, 192 h)?
Answer: > 2

Question: What about the fold induction at 1 µM (TOPflash (C2C12 cells); C2C12, 192 h) of the same compound?
Answer: 1.3 to 2

Question: And the fold induction at 1 µM (Nkx2.5 (C2C12 cells); C2C12, 192 h)?
Answer: > 2

Question: And the fold induction at 1 µM (ANF (P19 cells); P19, 192 h)?
Answer: > 2

Question: And the “luciferase signal in all three reporter assays” value (ANF (P19 cells); P19 cells, 1 μM for 8 days, ANF, TOPflash and Nkx2.5 reporter assays together)?
Answer: increase in the luciferase signal in all three reporter assays

Question: And the fold induction at 1 µM (TOPflash (P19 cells); P19, 192 h)?
Answer: > 2

Question: And the fold induction at 1 µM (Nkx2.5 (P19 cells); P19, 192 h)?
Answer: > 2

Question: And the melting point?
Answer: 218 to 219 °C

Question: For OCCNc1cc(Nc2ccc(N3CCOCC3)cc2)ncn1 [example 4, 2-(6-(4-Morpholinophenylamino)pyrimidin-4-ylamino)ethan-1-ol], which fold induction at 1 µM (ANF (C2C12 cells); [1]) is on record?
Answer: < 1.3

Question: What about the fold induction at 1 µM (TOPflash (C2C12 cells); [1]) of the same compound?
Answer: < 1.3

Question: And the fold induction at 1 µM (Nkx2.5 (C2C12 cells); [1])?
Answer: < 1.3

Question: What about the fold induction at 1 µM (ANF (P19 cells); [2]) of the same compound?
Answer: < 1.3

Question: And the fold induction at 1 µM (TOPflash (P19 cells); [2])?
Answer: 1.3 to 2

Question: And the fold induction at 1 µM (Nkx2.5 (P19 cells); [2])?
Answer: < 1.3

Question: And the melting point?
Answer: 204 to 207 °C

Question: Which fold induction at 1 µM (ANF (C2C12 cells); C2C12, 192 h) does the source give for c1nc(Nc2ccc(N3CCOCC3)cc2)cc(NC2CCCCC2)n1 [example 5, N^4-Cyclohexyl-N^6-(4-morpholinophenyl)pyrimidine-4,6-diamine] here?
Answer: < 1.3

Question: And the fold induction at 1 µM (TOPflash (C2C12 cells); C2C12, 192 h)?
Answer: < 1.3

Question: What about the fold induction at 1 µM (Nkx2.5 (C2C12 cells); C2C12, 192 h) of the same compound?
Answer: < 1.3

Question: And the fold induction at 1 µM (ANF (P19 cells); P19, 192 h)?
Answer: 1.3 to 2

Question: What about the fold induction at 1 µM (TOPflash (P19 cells); P19, 192 h) of the same compound?
Answer: < 1.3

Question: What about the fold induction at 1 µM (Nkx2.5 (P19 cells); P19, 192 h) of the same compound?
Answer: < 1.3

Question: And the melting point?
Answer: 239 to 240 °C

Question: With OCCCNc1cc(Nc2ccc(N3CCOCC3)cc2)ncn1 [example 6, 3-(6-(4-Morpholinophenylamino)pyrimidin-4-ylamino)propan-1-ol] as the compound, how does the fold induction at 1 µM (ANF (C2C12 cells); [1]) read?
Answer: 1.3 to 2

Question: And the fold induction at 1 µM (TOPflash (C2C12 cells); [1])?
Answer: < 1.3

Question: What about the fold induction at 1 µM (Nkx2.5 (C2C12 cells); [1]) of the same compound?
Answer: 1.3 to 2

Question: What about the fold induction at 1 µM (ANF (P19 cells); [2]) of the same compound?
Answer: 1.3 to 2

Question: And the fold induction at 1 µM (TOPflash (P19 cells); [2])?
Answer: < 1.3

Question: What about the fold induction at 1 µM (Nkx2.5 (P19 cells); [2]) of the same compound?
Answer: < 1.3

Question: What about the melting point of the same compound?
Answer: 198 to 199 °C

Question: Which fold induction at 1 µM (ANF (C2C12 cells); [1]) does the source give for OCCNc1cc(Nc2ccc(Nc3ccccc3)cc2)ncn1 [example 7, 2-(6-(4-(Phenylamino)phenylamino)pyrimidin-4-ylamino)ethan-1-ol] here?
Answer: < 1.3

Question: And the fold induction at 1 µM (TOPflash (C2C12 cells); [1])?
Answer: < 1.3

Question: What about the fold induction at 1 µM (Nkx2.5 (C2C12 cells); [1]) of the same compound?
Answer: < 1.3

Question: And the fold induction at 1 µM (ANF (P19 cells); [2])?
Answer: < 1.3

Question: What about the fold induction at 1 µM (TOPflash (P19 cells); [2]) of the same compound?
Answer: < 1.3

Question: What about the fold induction at 1 µM (Nkx2.5 (P19 cells); [2]) of the same compound?
Answer: < 1.3

Question: And the melting point?
Answer: 154 to 155 °C

Question: What does the source list for COc1ccc(Nc2cc(NC(C)C)ncn2)cc1 [example 12, N^4-(2-Propyl)-N^6-(4-methoxyphenyl)pyrimidine-4,6-diamine]?
Answer: luciferase signal in all three reporter assays (ANF (C2C12 cells); C2C12 cells, 1 μM for 8 days): increase in the luciferase signal in all three reporter assays; fold induction at 1 µM (ANF (C2C12 cells); C2C12, 192 h): 1.3 to 2; fold induction at 1 µM (TOPflash (C2C12 cells); C2C12, 192 h): 1.3 to 2; fold induction at 1 µM (Nkx2.5 (C2C12 cells); C2C12, 192 h): 1.3 to 2; fold induction at 1 µM (ANF (P19 cells); P19, 192 h): < 1.3; fold induction at 1 µM (TOPflash (P19 cells); P19, 192 h): < 1.3; fold induction at 1 µM (Nkx2.5 (P19 cells); P19, 192 h): 1.3 to 2

Question: For COCCNc1cc(Nc2ccc(OC)cc2)ncn1 [example 13, N^4-(2-Methoxyethyl)-N^6-(4-methoxyphenyl)pyrimidine-4,6-diamine], which fold induction at 1 µM (ANF (P19 cells); P19, 192 h) is on record?
Answer: 1.3 to 2

Question: For COc1ccc(Nc2cc(NCC(=O)O)ncn2)cc1 [example 14, 2-(6-(4-Methoxyphenylamino)pyrimidin-4-ylamino)acetic acid], which fold induction at 1 µM (ANF (P19 cells); P19, 192 h) is on record?
Answer: > 2

Question: With COc1ccc(Nc2cc(N3CCOCC3)ncn2)cc1 [example 15, N-(4-Methoxyphenyl)-6-morpholinopyrimidin-4-amine] as the compound, how does the fold induction at 1 µM (ANF (P19 cells); [2]) read?
Answer: > 2

Question: For COc1ccc(Nc2cc(N(C)CCO)ncn2)cc1 [example 16, 2-((6-(4-Methoxyphenylamino)pyrimidin-4-yl)(methyl)amino)ethan-1-ol], which fold induction at 1 µM (ANF (P19 cells); P19, 192 h) is on record?
Answer: > 2

Question: With CCCCNc1cc(Nc2ccc(OC)cc2)ncn1 [example 17, N^4-Butyl-N^6-(4-methoxyphenyl)pyrimidine-4,6-diamine] as the compound, how does the fold induction at 1 µM (ANF (P19 cells); [2]) read?
Answer: > 2

Question: For COc1ccc(Nc2cc(NC3CCCC3)ncn2)cc1 [example 18, N^4-Cyclopentyl-N^6-(4-methoxyphenyl)pyrimidine-4,6-diamine], which fold induction at 1 µM (ANF (P19 cells); P19, 192 h) is on record?
Answer: > 2

Question: With CCC(C)Nc1cc(Nc2ccc(OC)cc2)ncn1 (stereo not drawn) [example 19, N^4-sec-Butyl-N^6-(4-methoxyphenyl)pyrimidine-4,6-diamine] as the compound, how does the fold induction at 1 µM (ANF (P19 cells); [2]) read?
Answer: < 1.3

Question: And the fold induction at 1 µM (Nkx2.5 (P19 cells); [2])?
Answer: < 1.3

Question: Which fold induction at 1 µM (ANF (P19 cells); P19, 192 h) does the source give for COc1ccc(Nc2cc(NC(C)(C)C)ncn2)cc1 [example 20, N^4-tert-Butyl-N^6-(4-methoxyphenyl)pyrimidine-4,6-diamine] here?
Answer: > 2

Question: Which fold induction at 1 µM (ANF (P19 cells); P19, 192 h) does the source give for COc1ccc(Nc2cc(NC34CC5CC(CC(C5)C3)C4)ncn2)cc1 [example 21, N^4-Adamant-1-yl-N^6-(4-methoxyphenyl)pyrimidine-4,6-diamine] here?
Answer: > 2

Question: For COc1cccc(Nc2cc(NCCO)ncn2)c1 [example 22, 2-(6-(3-Methoxyphenylamino)pyrimidin-4-ylamino)ethan-1-ol], which fold induction at 1 µM (ANF (C2C12 cells); [1]) is on record?
Answer: 1.3 to 2

Question: And the fold induction at 1 µM (TOPflash (C2C12 cells); [1])?
Answer: 1.3 to 2

Question: And the fold induction at 1 µM (Nkx2.5 (C2C12 cells); [1])?
Answer: < 1.3

Question: And the fold induction at 1 µM (ANF (P19 cells); [2])?
Answer: < 1.3

Question: And the fold induction at 1 µM (TOPflash (P19 cells); [2])?
Answer: < 1.3

Question: And the fold induction at 1 µM (Nkx2.5 (P19 cells); [2])?
Answer: < 1.3
